Where two headings read alike, the source gives them in different places.
Tests used:
Assay type in all cases: cell-based
[1] = tested on: IL-4; assay: Cytokine production (IL-4) from KLH-stimulated mouse lymph node cells, ELISA; conditions: 4 days; for IC50: Mus musculus, 96 h, lymph node cells of KLH-sensitized BALB/c mice, KLH 0.1 mg/ml, read-out: IL-4 inhibition activity IC50; for production of IL-4: Test 3, KLH-stimulated mouse lymph node cells
Protocol: (§1) Activity on Cytokines Production from Mouse Lymph Node Cells by Compounds of Working Examples
(§2) BALB/c mice were purchased from Japan Charlse River (Yokohama) and 8 weeks female mice were used.
(§3) D-MEM (High Glucose) medium (Nikken Biomedical Research Lab. (Kyoto), Code No. CM4402) supplemented with 20% heat-inactivated (56° C., 30 min.) fetal bovine serum (Characterized, Code No. A-1115-L, HyClone Lab., Logan, Utah), 50 μM 2-mercaptoethanol (Sigma, St. Louis, Mo., Code No. M-6250), 100 unit/ml penicillin and 100 μg/ml streptomycin (Penicillin-Streptomycin, Bibco-BRL, Code No. 15140-122) were used for the assay.
Each test compound dissolved in DMSO (Nacalai Tesque (Kyoto) code No. 11J) at a concentration of 100 mM was diluted to final concentration with the medium.
KLH (0.2 mg) was subcutaneously administered to mouse foot with Freund's complete adjuvant (Difco Lab., Detroit, Mich., Code No. 3113-60-5). Eight days later popliteal lymph node was picked up and its cell suspension was prepared.
(§4) KLH (0.1 mg/ml) and the test compound were added to lymph node cells (2.5×10^6 cells/ml) and the mixture was incubated at 37° C. under 5% CO2 for 4 days (Corning 25850, 0.15 ml/well). Then, amount of cytokine produced in the supernatant was measured by ELISA specific to cytokine.
(§5) Amounts of interleukin 4 (IL-4) and interleukin 5 (IL-5) as a typical Th2 type cytokine, and amount of interferon γ (IFN-γ) as a typical Th1 type cytokine were measured.
Amount of IL-4 was measured by ELISA as mentioned below. A rat anti-mouse IL-4 antibody (Pharmingen, San Diego, Calif., Code No. 18031D, 0.5 mg/ml) as a primary antibody was diluted 250 times with hydrogen carbonate buffer, and it was inoculated to the 96-well plate (Falcon 3912, Becton Dickinson and Company, Flanklin Lakes, N.J.) (50μ/well) and each well was coated at 4° C. overnight. Then the plate was blocked with PBS (−) solution (phosphate-buffered saline without calcium chloride and magnesium chloride) containing 3% BSA (200 μl/well). After rinsing the plate three times with PBS (−) solution containing 0.05% polyoxyethylene solbitan monolaurate (Tween 20™, Nacalai Tesque (Kyoto) Code No. 281-51) (PBST), the supernatant of the culture medium was added to the wells (50 μl/well) and incubated at room temperature for 4 hours. Recombinant mouse IL-4 (Pharmingen, Code No. 19231W) was used for preparing a calibration curve.
After rinsing the plate three times with PBST, a rat anti-mouse IL-4 antibody labeled by biotin (Pharmingen, Code No. 18042D, 0.5 mg/ml) as a secondary antibody, which was diluted 500 times with PBS (−) solution containing 0.1% BSA, was poured into wells (100 μl/well). The plate was incubated at room temperature for one hour. The secondary antibody bound to the plate was detected with streptoabidin alkaliphosphatase (Kirkegaad & Perry Lab., Gaithersburg, Md., Code No. 15-30-00) (0.25 μg/ml, 100 μl/well). After incubation of the plate at 37° C. for one hour and rinsing the plate three times with PBST, the coloring was done by adding PNPP substrate (p-nitrophenyl disodium phosphate substrate (Nacalai Tesque) (1 mg/ml, 100 μl/well)). The absorption at 415 nm was measured by a microplate reader (MTP-120 Microplate reader, Corona Electric Co.)
In the same manner as in Test 1, each test compound dissolved in DMSO (Nacalai Tesque (Kyoto) code No. 11J) at a concentration of 100 mM was diluted to final concentration with the medium. Sensitization and preparation of lymph node cells, production of cytokine by stimulation with an antigen and measurement of amounts of cytokines were conducted in the same method as in Test 1.
By measuring inhibition rate of production of IL-4 at various concentrations of each test compound and using a graph relating to the compound concentration and the inhibition rate, 50% inhibition concentration (IC50) on each test compound was calculated.

[2] = tested on: IL-5; assay: Cytokine production (IL-5) from KLH-stimulated mouse lymph node cells, ELISA; conditions: Test 3, 4 days
Protocol: as §1, §2, §3
(§6) Each test compound dissolved in DMSO (Nacalai Tesque (Kyoto) code No. 11J) at a concentration of 100 mM was diluted to final concentration with the medium. […]
as §4, §5
(§7) Amount of IL-4 was measured by ELISA as mentioned below. […]

[3] = tested on: IFN-γ; assay: Cytokine production (IFN-γ) from KLH-stimulated mouse lymph node cells, ELISA; conditions: Test 3, 4 days
Protocol: as §1, §2, §3, §6, §4, §5, §7

## CCOC(=O)C(C)Nc1nc(N)nc2c1CCCC2 (stereo not drawn) [Example 7, Ethyl 2-[(2-amino-5,6,7,8-tetrahydroquinazoline-4-yl)amino]propanoate]
[1]; Test 2, Table 1
  IC50: 0.5 µg/mL

## CCCCCNc1nc(N)nc(C)c1CCC#N [Example 23, 3-[2-Amino-4-methyl-6-(pentylamino)pyrimidine-5-yl]propanenitrile]
[1]; Test 2, Table 1
  IC50: 0.5 µg/mL

## CCCCCNc1nc(N)nc(C)c1Cc1ccccc1 [Example 26, N-(2-Amino-5-benzyl-6-methylpyrimidine-4-yl)-N-pentylamine]
[2]
  production of IL-5: inhibit the production
[3]
  production of IFN-γ: enhance the production
[1]; Test 4, Table 2
  IC50: 0.5 µg/mL
[1]
  production of IL-4: inhibit the production

## CCOCCNc1nc(N)nc2c1CCCC2 [Example 4, N-(2-Amino-5,6,7,8-tetrahydroquinazoline-4-yl)-N-(2-ethoxyethyl)amine]
[1]; Test 2, Table 1
  IC50: 3 µg/mL

## CCCCCNc1nc(N)nc2c1CCC2 [Example 20, N-(2-Amino-6,7-dihydro-5H-cyclopenta[d]pyrimidine-4-yl)-N-pentylamine]
[1]; Test 2, Table 1
  IC50: 0.3 µg/mL

## CCCCCNc1nc(N)nc(C)c1C [Example 18, N-(2-Amino-5,6-dimethylpyrimidine-4-yl)-N-pentylamine]
[1]; Test 2, Table 1
  IC50: 0.3 µg/mL

## CCCCCNc1nc(N)nc(C)c1CCCC [Example 14, N-(2-Amino-5-butyl-6-methylpyrimidine-4-yl)-N-pentylamine]
[1]; Test 2, Table 1
  IC50: 0.1 µg/mL

## CCOC(=O)C(CC(C)C)Nc1nc(N)nc2c1CCCC2 (stereo not drawn) [Example 3, Ethyl-2-[(2-amino-5,6,7,8-tetrahydroquinazoline-4-yl)amino]-4-methylpentanoate]
[1]; Test 2, Table 1
  IC50: 0.5 µg/mL

## CCCCCNc1nc(N)nc(C)c1CC [Example 24, N-[2-Amino-5-ethyl-6-methylpyrimidine-4-yl)-N-pentylamine]
[1]; Test 2, Table 1
  IC50: 0.2 µg/mL

## CCCCc1c(C)nc(N)nc1NCC(O)CCC (stereo not drawn) [Example 25, 1-[(2-Amino-5-butyl-6-methylpyrimidine-4-yl)amino]pentane-2-ol]
[1]; Test 2, Table 1
  IC50: 0.1 µg/mL

## Nc1nc2c(c(NCC3CCCO3)n1)CCCC2 (stereo not drawn) [Example 13, N-(2-Amino-5,6,7,8-tetrahydroquinazoline-4-yl)-N-(tetrahydorofuran-2-ylmethyl)amine]
[1]; Test 2, Table 1
  IC50: 10 µg/mL

## CCCCCNc1nc(N)ncc1Cc1ccccc1 [Example 27, N-(2-Amino-5-benzylpyrimidine-4-yl)-N-pentylamine]
[2]
  production of IL-5: inhibit the production
[3]
  production of IFN-γ: enhance the production
[1]; Test 4, Table 2
  IC50: 1 µg/mL
[1]
  production of IL-4: inhibit the production

## CCCCNc1nc(N)nc2c1CCCC2 [Example 5, N-(2-Amino-5,6,7,8-tetrahydroquinazoline-4-yl)-N-butylamine]
[1]; Test 2, Table 1
  IC50: 0.2 µg/mL

## CCOC(=O)C(CO)Nc1nc(N)nc2c1CCCC2 (stereo not drawn) [Example 8, Ethyl 2-[(2-amino-5,6,7,8-tetrahydroquinazoline-4-yl)amino]-3-hydroxypropanoate]
[1]; Test 2, Table 1
  IC50: 1 µg/mL

## CCCC(=O)CNc1nc(N)nc2c1CCCC2 [Example 12, 1-[(2-Amino-5,6,7,8-tetrahydroquinazoline-4-yl)amino]pentane-2-one]
[1]; Test 2, Table 1
  IC50: 1 µg/mL

## Nc1nc2c(c(NCC3CCCCC3)n1)CCCC2 [Example 2, N-(2-Amino-5,6,7,8-tetrahydroquinazoline-4-yl)-N-(cyclohexylmethyl)amine]
[1]; Test 2, Table 1
  IC50: 0.6 µg/mL

## CCCCCNc1nc(N)nc(CCCC)c1C [Example 17, N-(2-Amino-6-butyl-5-methylpyrimidine-4-yl)-N-pentylamine]
[1]; Test 2, Table 1
  IC50: 5 µg/mL

## CCCC(O)CNc1nc(N)nc2c1CCCC2 (stereo not drawn) [Example 11, 1-[(2-Amino-5,6,7,8-tetrahydroquinazoline-4-yl)amino]pentane-2-ol]
[1]; Test 2, Table 1
  IC50: 0.1 µg/mL

## CCCCCNc1nc(N)nc2c1CCCC2 [Example 19, N-(2-Amino-5,6,7,8-tetrahydroquinazoline-4-yl)-N-pentylamine]
[1]; Test 2, Table 1
  IC50: 0.2 µg/mL

## CCCCC(Nc1nc(N)nc2c1CCCC2)C(=O)OC (stereo not drawn) [Example 9, Methyl 2-[(2-amino-5,6,7,8-tetrahydroquinazoline-4-yl)amino)hexanoate]
[1]; Test 2, Table 1
  IC50: 1 µg/mL

## CCOC(=O)CNc1nc(N)nc2c1CCCC2 [Example 1, Ethyl-2-[(2-amino-5,6,7,8-tetrahydroquinazoline-4-yl)amino]acetate]
[1]; Test 2, Table 1
  IC50: 0.6 µg/mL

## CCCCCNc1nc(N)nc2c1COCC2 [Example 16, N-(2-Amino-7,8-dihydro-5H-pyrano[4,3-d]pyrimidine-4-yl)-N-pentylamine]
[1]; Test 2, Table 1
  IC50: 3 µg/mL

## CCCCC(Nc1nc(N)nc2c1CCCC2)C(N)=O (stereo not drawn) [Example 21]
[1]; Test 2, Table 1
  IC50: 0.5 µg/mL

## CCCCCCc1c(C)nc(N)nc1NCCCCC [Example 15, N-(2-Amino-5-hexyl-6-methylpyrimidine-4-yl)-N-pentylamine]
[1]; Test 2, Table 1
  IC50: 0.4 µg/mL

## CCCCCCNc1nc(N)nc2c1CCCC2 [Example 6, N-(2-Amino-5,6,7,8-tetrahydroquinazoline-4-yl)-N-hexylamine]
[1]; Test 2, Table 1
  IC50: 1 µg/mL

## CCCCC(CO)Nc1nc(N)nc2c1CCCC2 (stereo not drawn) [Example 10, 2-[(2-Amino-5,6,7,8-tetrahydroquinazoline-4-yl)amino]hexane-1-ol]
[1]; Test 2, Table 1
  IC50: 0.1 µg/mL

## CCCCCNc1nc(N)nc(C)c1CCOC [Example 22, N-(2-Amino-5-(2-methoxyethyl)-6-methylpyrimidine-4-yl)-N-pentylamine]
[1]; Test 2, Table 1
  IC50: 0.5 µg/mL
